Measured values published in patent US7919468B2, “Compounds useful as modulators of the proteasome activity” (Centre National de la Recherche Scientifique (C.N.R.S.), priority 2005, dated 2011).
Peptide text beside a SMILES is read from it. * marks the point of attachment. Boc = CC(C)(C)OC(=O)*; NHBn = c1ccc(CN*)cc1; NHPh = c1ccc(N*)cc1; Bn = c1ccc(C*)cc1

Tests used:
Format in all cases: biochemical
[1] = tested on: rabbit 20S proteasome, trypsin-like (T-L) activity; assay: Rabbit 20S proteasome fluorescent assay, trypsin-like activity (Boc-LLR-amc); settings: [Compound]=100 μM, pH 7.5, 30° C.
Protocol: (§1) 20S proteasome from rabbit reticulocyte was from commercial source (Alexis Biochemicals)
(§2) Semi-automatic fluorescent assays using Suc-LLVY-amc (SEQ ID NO: 2) for chymotrypsin-like activity, Z-LLE-SNA for post-acid activity and Boc-LLR-amc for trypsin-like activity of proteasome were performed at pH 7.5 and 30° C. using BMG Fluostar microplate reader (Suc=succinyl; amc=7-amino-4-methylcoumarin; Z=benzyloxycarbonyl; NA=2-naphtylamine; Boc=tert-butoxycarbonyl). The buffers were: 20 mM Tris, 1 mM DTT, 10% glycerol, 3% (v/v) DMSO (ChT-L and PA activities); 20 mM Tris, 1 mM DTT, 10% glycerol, 3% (v/v) DMSO. Studied compounds were dissolved in DMSO prior dissolution in the buffer. Proteasome was incubated for 15 min at 30° C. in the presence of the studied compound (0.1-100 μM). A control assay in the absence of tested compounds contained DMSO at the same concentration (3%, v/v). The fluorogenic proteasome substrate was then added and the hydrolysis of the appropriate fluorescent substrate was monitored for 1 h (λexc=360, λem=465 nm for amc substrates and λexc=340, λem=405 nm for the βNA substrate). Initial rates determined in control experiments were considered to be 100% of the peptidasic activity; initial rates that were above 100% in the presence of a test compound were considered to be activations, while initial rates below 100% were considered to be inhibitions. For weak inhibitors, the percentage of inhibition at a reference concentration (100 μM) is reported. The results, expressed in % inhibition (or activation factor), were obtained by calculating the average of at least two independent experiments, the variability was less than 10%. The inhibitory activity of more efficient compounds are expressed as IC50 calculated by fitting the experimental data to the equation 1: % Inhibition=100 [I]0/(IC50+[I]0)=100 (v0−vi/v0), or equation 2: % Inhibition=100 [I]0^nH/(IC50^nH+[I]0^nH), nH is the Hill number. v0 and vi are the initial rates in the absence and in the presence of inhibitor. A Dixon plot has been used to determine the inhibition constant Ki for competitive inhibition by compound A215. The reversible character of inhibition or activation was determined by measuring the activity of treated enzyme after the inhibitor molecule has been withdrawn from the reaction medium.
(§3) Inhibition of Rabbit 20 S Proteasome (pH=7.5, 30° C.)
(§4) Activation of Rabbit 20 S Proteasome (pH=7.5, 30° C., [Compound]=100 μM)

[2] = tested on: T1, rabbit 20S proteasome, chymotrypsin-like (CT-L) activity; assay: Rabbit 20S proteasome fluorescent assay, chymotrypsin-like activity (Suc-LLVY-amc); settings: [Compound]=100 μM, pH 7.5, 30° C.
T1 construct: other: [Compound]=100 μM, pH 7.5, 30° C
Protocol: as §1, §2, §3, §4

[3] = biological target: T2, rabbit 20S proteasome, post-acid (PA) activity (Oryctolagus cuniculus, UniProt A0A5F9DQW2); assay: Rabbit 20S proteasome fluorescent assay, post-acid activity (Z-LLE-βNA); settings: pH 7.5, 30° C.; for PA % inhibition (at 100 μM): 100 μM compound
T2 construct: other: 100 μM compound, pH 7.5, 30° C; other: pH 7.5, 30° C
T2 sequence (A0A5F9DQW2 1-212): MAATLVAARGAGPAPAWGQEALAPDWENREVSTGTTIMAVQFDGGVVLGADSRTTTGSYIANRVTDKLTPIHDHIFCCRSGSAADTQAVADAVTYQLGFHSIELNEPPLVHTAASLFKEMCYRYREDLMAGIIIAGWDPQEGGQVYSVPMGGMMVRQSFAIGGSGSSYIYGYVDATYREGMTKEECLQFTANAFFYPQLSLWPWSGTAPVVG
Protocol: as §1, §2, §3, §4

[4] = biological target: T3, rabbit 20S proteasome, chymotrypsin-like (CT-L) activity (Oryctolagus cuniculus, UniProt G1T4Q9); assay: Rabbit 20S proteasome fluorescent assay, chymotrypsin-like activity (Suc-LLVY-amc); settings: pH 7.5, 30° C.; for inhibition at 100 µM: 100 μM compound
T3 construct: other: 100 μM compound, pH 7.5, 30° C; other: pH 7.5, 30° C; CT-L Ki
T3 sequence (G1T4Q9 1-263): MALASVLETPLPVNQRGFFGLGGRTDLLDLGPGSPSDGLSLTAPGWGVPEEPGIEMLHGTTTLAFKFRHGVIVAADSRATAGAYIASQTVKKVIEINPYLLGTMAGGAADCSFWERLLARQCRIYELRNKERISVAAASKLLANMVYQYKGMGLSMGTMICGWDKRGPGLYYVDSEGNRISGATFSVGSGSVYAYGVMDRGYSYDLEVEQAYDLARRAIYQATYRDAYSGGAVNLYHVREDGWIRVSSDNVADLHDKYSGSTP
Protocol: as §1, §2, §3, §4

[5] = biological target: T4, rabbit 20S proteasome, trypsin-like (T-L) activity (Oryctolagus cuniculus, UniProt G1SWK8); assay: Rabbit 20S proteasome fluorescent assay, trypsin-like activity (Boc-LLR-amc); settings: 100 μM compound, pH 7.5, 30° C.
T4 construct: other: 100 μM compound, pH 7.5, 30° C; other: pH 7.5, 30° C
T4 sequence (G1SWK8 1-271): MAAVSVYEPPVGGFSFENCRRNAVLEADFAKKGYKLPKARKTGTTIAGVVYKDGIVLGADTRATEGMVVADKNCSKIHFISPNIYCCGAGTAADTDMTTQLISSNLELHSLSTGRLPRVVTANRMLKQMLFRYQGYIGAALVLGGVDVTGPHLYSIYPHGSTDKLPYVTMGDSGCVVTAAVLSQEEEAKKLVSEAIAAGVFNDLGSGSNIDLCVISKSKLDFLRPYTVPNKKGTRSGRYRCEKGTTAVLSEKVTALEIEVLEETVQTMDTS
Protocol: as §1, §2, §3, §4

| SMILES | PA % inhibition (at 100 μM) [3] | inhibition at 100 µM [4] | T-L Activation factor [1] | CT-L Activation factor [2] | other results |
| --- | --- | --- | --- | --- | --- |
| CC(C)C[C@H](NC(=O)[C@H](Cc1ccc(OCc2ccccc2)cc1)NC(=O)OC(C)(C)C)C(=O)N[C@@H](Cc1c[nH]c2ccccc12)C(=O)NCc1ccccc1 [A414P, N-Boc-Tyr(Bn)-Leu-Trp-NHCH2Ph] (Boc-Tyr(Bn)-Leu-Trp-NHBn) |  |  | 1.9 | 1.3 |  |
| CC(C)C[C@H](NC(=O)[C@H](Cc1ccc(OCc2ccccc2)cc1)NC(=O)OC(C)(C)C)C(=O)N[C@@H](Cc1c[nH]c2ccccc12)C(=O)Nc1ccccc1 [A424P, N-Boc-Tyr(Bn)-Leu-Trp-NHPh] (Boc-Tyr(Bn)-Leu-Trp-NHPh) |  |  | 1.9 | 1.2 |  |
| CC(C)C[C@H](NC(=O)[C@H](Cc1ccc(OCc2ccccc2)cc1)NC(=O)OC(C)(C)C)C(=O)N[C@@H](CC1C(=O)Nc2ccccc21)C(=O)Nc1ccccc1 (some centres unmarked) [JV602, Boc-Tyr(Bn)-Leu-Trp[O]—NHPh] | 26% | 22% | 1.3 |  |  |
| COC(=O)[C@H](Cc1c[nH]c2ccccc12)NC(=O)[C@H](C)NC(=O)[C@H](Cc1ccc(O)cc1)NC(=O)OC(C)(C)C [NR40, N-Boc-Tyr-Ala-Trp-OCH3] (Boc-Tyr-Ala-Trp-OMe) |  |  | 6 |  | IC50 [3]: 35 µM; IC50 [4]: 40 µM |
| CC(C)(C)OC(=O)N[C@@H](Cc1ccc(OCc2ccccc2)cc1)C(=O)NCC(=O)N[C@@H](Cc1c[nH]c2ccccc12)C(=O)NCc1ccccc1 [PSV11R, N-Boc-Tyr(Bn)-Gly-Trp-NHCH2Ph] (Boc-Tyr(Bn)-Gly-Trp-NHBn) | 59% |  | 1.7 | 1.2 |  |
| CNC(=O)[C@H](Cc1c[nH]c2c(-c3cc(C[C@H](NC(=O)OC(C)(C)C)C(=O)N[C@@H](CC(C)C)C(=O)OC)ccc3OCc3ccccc3)cccc12)NC(=O)OCc1ccccc1 [SP226F1] |  |  |  |  | inhibition at 100 µM [5]: 23% |
| CC(C)C[C@H](NC(=O)[C@H](Cc1ccc(OCc2ccccc2)cc1)NC(=O)OC(C)(C)C)C(=O)N[C@@H](Cc1c[nH]c2ccccc12)C(=O)NCCCCNC(=O)OC(C)(C)C [SP296P, N-Boc-Tyr(Bn)-Leu-Trp-NH(CH2)4NHBoc] | 59% | 22% | 2.3 |  |  |
| C[C@H](NC(=O)[C@H](Cc1ccc(OCc2ccccc2)cc1)NC(=O)OC(C)(C)C)C(=O)N[C@@H](Cc1c[nH]c2ccccc12)C(=O)Nc1ccccc1 [SP303r2, N-Boc-Tyr(Bn)-Ala-Trp-NHPh] (Boc-Tyr(Bn)-Ala-Trp-NHPh) |  |  | 1.6 | 1.4 |  |
| CC(C)(C)OC(=O)NCCCC[C@H](NC(=O)[C@H](Cc1ccc(OCc2ccccc2)cc1)NC(=O)OC(C)(C)C)C(=O)N[C@@H](Cc1c[nH]c2ccccc12)C(=O)Nc1ccccc1 [SP306P, N-Boc-Tyr(Bn)-Lys(Boc)-Trp-NHPh] (Boc-Tyr(Bn)-Lys(Boc)-Trp-NHPh) |  |  | 1.6 | 1.2 |  |
| CC(C)(C)OC(=O)NCCCC[C@H](NC(=O)[C@H](Cc1ccc(OCc2ccccc2)cc1)NC(=O)OC(C)(C)C)C(=O)N[C@@H](Cc1c[nH]c2ccccc12)C(=O)NCc1ccccc1 [SP307P, N-Boc-Tyr(Bn)-Lys(Boc)-Trp-NHCH2Ph] (Boc-Tyr(Bn)-Lys(Boc)-Trp-NHBn) |  |  | 1.8 | 1.3 |  |
| CC(C)(C)OC(=O)NCCCCNC(=O)[C@H](Cc1c[nH]c2ccccc12)NC(=O)[C@H](CCCCNC(=O)OC(C)(C)C)NC(=O)[C@H](Cc1ccc(OCc2ccccc2)cc1)NC(=O)OC(C)(C)C [SP308P, N-Boc-Tyr(Bn)-Lys(Boc)-Trp-NH(CH2)4NHBoc] |  |  | 1.9 | 1.6 |  |
| CC(C)(C)OC(=O)N[C@@H](Cc1ccc(OCc2ccccc2)cc1)C(=O)N[C@@H](CCCN(C(=N)NC(=O)OCc1ccccc1)C(=O)OCc1ccccc1)C(=O)N[C@@H](Cc1c[nH]c2ccccc12)C(=O)Nc1ccccc1 [SP310C, N-Boc-Tyr(Bn)-Arg(Z)-2-Trp-NHPh] |  |  | 1.6 | 1.7 |  |
| C[C@H](NC(=O)[C@H](Cc1ccc(OCc2ccccc2)cc1)NC(=O)OC(C)(C)C)C(=O)N[C@@H](Cc1c[nH]c2ccccc12)C(=O)Nc1ccc(O)cc1 [SP313P, N-Boc-Tyr(Bn)-Ala-Trp-NH(4-OH)Ph] |  | 26% |  |  | IC50 [3]: 4 µM |
| CC(C)(C)OC(=O)N[C@@H](Cc1ccc(OCc2ccccc2)cc1)C(=O)N[C@@H](CC(N)=O)C(=O)N[C@@H](Cc1c[nH]c2ccccc12)C(=O)Nc1ccccc1 [SP314C2, N-Boc-Tyr(Bn)-Asn-Trp-NHPh] (Boc-Tyr(Bn)-Asn-Trp-NHPh) |  |  | 2.5 | 1.5 |  |
| CC(C)(C)OC(=O)N[C@@H](Cc1ccc(OCc2ccccc2)cc1)C(=O)N[C@@H](CCCN(C(=N)NC(=O)OCc1ccccc1)C(=O)OCc1ccccc1)C(=O)N[C@@H](Cc1c[nH]c2ccccc12)C(=O)NCc1ccccc1 [SP315C2, N-Boc-Tyr(Bn)-Arg(Z)-2-Trp-NHCH2Ph] |  |  | 1.9 | 1.2 |  |
| CC(C)(C)OC(=O)N[C@@H](Cc1ccc(OCc2ccccc2)cc1)C(=O)N[C@@H](CC(N)=O)C(=O)N[C@@H](Cc1c[nH]c2ccccc12)C(=O)Nc1ccc(O)cc1 [SP318C, N-Boc-Tyr(Bn)-Asn-Trp-NH(4-OH)Ph] | 66% | 15% | 1.2 |  |  |

Now from value to molecule, other results behind:

| PA % inhibition (at 100 μM) [3] | inhibition at 100 µM [4] | SMILES | T-L Activation factor [1] | CT-L Activation factor [2] | other results |
| --- | --- | --- | --- | --- | --- |
| 35% | 28% | CC(C)(C)OC(=O)N[C@@H](Cc1ccc(OCc2ccccc2)cc1)C(=O)N[C@@H](CC(N)=O)C(=O)N[C@@H](Cc1c[nH]c2ccccc12)C(=O)NCc1ccccc1 [A416, N-Boc-Tyr(Bn)-Asn-Trp-NHCH2Ph] (Boc-Tyr(Bn)-Asn-Trp-NHBn) | 2.2 |  |  |
| 40% | 29% | COC(=O)[C@H](Cc1c[nH]c2c(Br)cccc12)NC(=O)CCNC(=O)C(Cc1ccc(OC)c(I)c1)NC(=O)OC(C)(C)C (some centres unmarked) [A493, N-Boc-3-iodo-Tyr(Me)-βAla-7-bromo-Trp-OMe] | 8.2 |  |  |
| 87% |  | CC(C)(C)OC(=O)N[C@@H](Cc1ccc(OCc2ccccc2)cc1)C(=O)NCC(=O)N[C@@H](CC1C(=O)Nc2ccccc21)C(=O)NCc1ccccc1 (some centres unmarked) [NR15, Boc-Tyr(Bn)-Gly-Trp[O]—NHCH2Ph] | 12.3 |  | IC50 [4]: 2.2 µM |
| 39% | 34% | COC(=O)[C@H](Cc1c[nH]c2ccccc12)NC(=O)[C@H](C)NC(=O)[C@H](Cc1ccc(OCc2ccccc2)cc1)NC(=O)OC(C)(C)C [NR36, N-Boc-Tyr(Bn)-Ala-Trp-OCH3] (Boc-Tyr(Bn)-Ala-Trp-OMe) | 9.8 |  |  |
| 81% |  | COC(=O)[C@H](CC1C(=O)Nc2ccccc21)NC(=O)CNC(=O)[C@H](Cc1ccc(OCc2ccccc2)cc1)NC(=O)OC(C)(C)C (some centres unmarked) [NR38, Boc-Tyr(Bn)-Gly-Trp[O]—OCH3] | 9.8 |  | IC50 [4]: 13.5 µM |
| 45% | 62% | COC(=O)[C@H](Cc1c[nH]c2c(Br)cccc12)NC(=O)[C@H](CC(N)=O)NC(=O)[C@H](Cc1ccc(OCc2ccccc2)c(I)c1)NC(=O)OC(C)(C)C [SP274, N-Boc-3-iodo-Tyr(Bn)-Asn-7-bromo-Trp-OMe] |  |  |  |
